The source of these data is patent US20090291064A1 (priority 2008, published 2009).

One data set has as its system CYP1A1. The note with it: pig. As to the method:
(§1) Several CYP450 enzymatic activities were investigated in PICM-19H cells to determine the presence and inducible nature of major CYP450 isoforms. […] Cells were washed with PBS and appropriate inducer medium was added for 48 h prior to experimentation.
(§2) CYP450 activity was assessed in T25 cultures of PICM-19H cells that were grown for 3 wk post-passage. T25 cultures of APH or HepG2 C3A cells were tested after 3 d of primary culture and at 1 wk post-passage or near confluency, respectively. […] After the initial induction, cells were washed and given a non-fluorescent substrate for CYP1A1, CYP1A2, CYP2, or CYP3A (7-ERF, 7-MRF, MFC, and BFC, respectively). […] Medium samples were collected, centrifuged to remove cell debris (14,000×g, 2 min) and frozen at −80° C. until analyzed. […] Briefly, samples were incubated at 37° C. with or without β-glucuronidase/arylsulphatase (15 Fishman/120 Roy units/ml, Roche Applied Sciences) in pH 4.5 acetate buffer for 2 h to release any fluorescent reaction product that had been conjugated via sulfation or glucurondation phase II conjugation reactions. Standard curves contained resorufin or 7-HFC were treated identically to the experimental medium samples. Fluorescence was determined in an HTS 7000 plate reader; excitation/emission filter pairs were 530/590 and 410/510 for resorufin and 7-HFC, respectively. To determine relative conjugation activity, fluorescence was also determined directly without incubating first in β-glucuronidase/arylsulphatase. Since conjugated forms of resorufin and 7-HFC are non-fluorescent, the difference between the direct and indirect fluorescence measurements represents the amount of product which had been modified by conjugating enzymes.

The test system of the next data set is CYP 1A2. As to the method:
as §1, §2

For the next data set, the system named is CYP2. On the procedure: as §1, §2
The next data set is described as follows: in vitro. The note with it: pig, LC50, WST-1 viability. (Tetrazolium dyes change colour on reduction, which living cells bring about.)

Broadly, the CC50 is the concentration giving 50% cytotoxicity.

SMILES strings stand for the structures. Like-named read-outs stand apart in the source and are kept apart here.

For `CCC1(c2ccccc2)C(=O)NC(=O)NC1=O` [PHB, phenobarbital], the “increase in EROD activity” value in the data set with CYP1A1 stood at 7 fold. Further, the “MROD activity (in words)” value in the data set on CYP 1A2 is “low”. In addition, in the data set with CYP2, the “MFCD activity induction (in words)” value was “equally induced”. In addition, in the data set with CYP3A (pig), the “increase in BFCD activity compared to non-induced controls” value is reported as “approximately 50%”.

Take `Cc1ccc2cc3c(ccc4ccccc43)c3c2c1CC3` [3-MC, 3-methylcholanthrene]: the “increase in EROD activity” value in the data set with CYP1A1 came to 198 fold. Further, in the data set on CYP 1A2 (PICM-19H cells, 48 h with 5 μM 3-MC, vs non-induced), the “induction of MROD activity” value turned out to be 5.5 fold. The “MFCD activity induction (in words)” value with CYP2 (PICM-19H cells, 48 h with 1 mM PHB, 50 μM Rif or 5 μM 3-MC) was “equally induced”. Besides, the “induction of BFCD activity” value in the data set with CYP3A (PICM-19H cells, 48 h with 5 μM 3-MC) is listed as 5.8 fold.

As for `CC(=O)Nc1ccc(O)cc1` [acetaminophen], the “toxicity in glutathione-depleted cells” value in the data set on PICM-19H cells is reported as “enhanced”. Moreover, the CC50 with PICM-19H cells (pig) was roughly 13 mM; in the data set “in vitro”, 12.6 ± 0.75 mM.
